From patent US4377583A, “N-Methyl-D-glucamine salt of with 3,4-dihydro-5-methyl-6-(2-methylpropyl)-4-oxothieno[2,3-d]pyrimidine-2-c arboxylic acid” (Mead Johnson & Company, priority 1981, dated 1983)
Structures can show the parent of a compound that is named as a salt.

What was measured:
[1] = Water solubility of isolated salts of MJ 12175 (redissolution); type: physicochemical; conditions: for H2O Solubility isolated salt: room temperature (about 25° C.)
Description: (§1) Many conventional pharmaceutically acceptable amine salts of MJ 12175 are not well suited for the present use due to limited solubility, lack of stability, pH ranges differing sufficiently from physiological pH (~7.4) to the extent that irritation of tissue becomes a problem.
(§2) The amine salts of MJ 12175 shown in Table 1 were first prepared in situ by adding the amine to a suspension of MJ 12175 in a quantity of water sufficient to give a 4% aqueous solution of the resulting salt. When a precipitate formed on amine addition indicating relative insolubility, pH was not measured as in the cases of salts 4 through 8 in Table 1. Although solutions were obtained with the other salts formed in situ supersaturation of these solutions appears likely since the four salts (Nos. 2, 3, 9, 11) which were isolated were less than 4% soluble on redissolution. […] The three crystalline salts were the only examples where solid precipitated from the in situ solutions on standing. Of the three crystalline isolated amine salts of MJ 12175, the glucamine salt best meets the water solubility and pH criteria.

[2] = pH of salts of MJ 12175; type: physicochemical; conditions: room temperature (about 25° C.)
Description: as §1, §2

[3] = Stability of aqueous solutions on extended storage
[4] = Water solubility of salts of MJ 12175 formed in situ (4% aqueous solution); type: physicochemical; conditions: room temperature (about 25° C.); precipitate formed on amine addition, indicating relative insolubility
Description: as §1, §2

[5] = Physical state of isolated salts; type: physicochemical
Description: as §2

[6] = cited from earlier work

With `Cc1c(CC(C)C)sc2nc(C(=O)O)[nH]c(=O)c12` [MJ 12175, 3,4-Dihydro-5-methyl-6-(2-methylpropyl)-4-oxothieno[2,3-d]pyrimidine-2-carboxylic Acid] the “H2O Solubility isolated salt” value ([1]; listed as 1) was 8.9 mg/mL and the pH ([2]; listed as 1) was 11.22.
In the case of `Cc1c(CC(C)C)sc2nc(C(=O)O)[nH]c(=O)c12` [Salt No. 2, 3,4-Dihydro-5-methyl-6-(2-methylpropyl)-4-oxothieno[2,3-d]pyrimidine-2-carboxylic Acid N-methyl-D-glucamine Salt], the “H2O Solubility isolated salt” value [1] is reported as 12 mg/mL, the solubility ([1]; water, isolated salts, redissolution) is reported as less than 40 mg/mL and the “stability of aqueous solutions” value [3] is reported as “demonstrated the stability of its aqueous solutions on extended storage”. The pH [2] was 6.4.
For `Cc1c(CC(C)C)sc2nc(C(=O)O)[nH]c(=O)c12` [compound 3], the “solubility of isolated salts on redissolution” value (“solubility of isolated salts” for short) ([1]; isolated salts, redissolution) was “less than 4%”, the “H2O Solubility isolated salt” value [1] was 5 mg/mL and the pH [2] was 4.7.
For `Cc1c(CC(C)C)sc2nc(C(=O)O)[nH]c(=O)c12` [compound 4], the “H2O Solubility in situ (ppt)” value [4] was “ppt”.
In the case of `Cc1c(CC(C)C)sc2nc(C(=O)O)[nH]c(=O)c12` [compound 9], the “solubility of isolated salts” value ([1]; isolated salts, redissolution) is reported as “less than 4%”, the “H2O Solubility isolated salt” value [1] is reported as less than 1 mg/mL and the pH [2] is reported as 6.81.
With `Cc1c(CC(C)C)sc2nc(C(=O)O)[nH]c(=O)c12` [compound 10] the pH [2] was 4.55.
In the case of `Cc1c(CC(C)C)sc2nc(C(=O)O)[nH]c(=O)c12` [compound 11], the “physical state of isolated salt” value [5] is reported as “remained a non-crystallinetar during attempted purification”, the “solubility of isolated salts” value ([1]; isolated salts, redissolution) is reported as “less than 4%” and the pH [2] is reported as 6.42.
For `Cc1c(CC(C)C)sc2nc(C(=O)O)[nH]c(=O)c12` [compound 12], the pH [2] was 6.29.
With `Cc1c(CC(C)C)sc2nc(C(=O)O)[nH]c(=O)c12` [compound 13] the pH [2] was 8.08.
In the case of `Cc1c(CC(C)C)sc2nc(C(=O)O)[nH]c(=O)c12` [compound 14], the pH [2] is reported as 9.59.
In the case of `Cc1c(CC(C)C)sc2nc(C(=O)O)[nH]c(=O)c12` [potassium salt], the pH of solutions ([6]; not desirable for nasal instillation) is listed as “alkaline pH” and the water solubility ([6]; relative to MJ 12175) is listed as “improved water solubility”.
